ChEMBL document CHEMBL1136687, “Novel 5-aryl-1,3-dihydro-indole-2-thiones. potent, orally active progesterone receptor agonists” (Bioorg Med Chem Lett, 2003)

Key:
Progesterone receptor [1] = molecular target: T1, Progesterone receptor (Homo sapiens, UniProt P06401); test: (§1) Effective concentration of progesterone receptor agonist induction of alkaline phosphatase activity in human T47D breast carcinoma cells; type: functional, cell-based
T1 sequence (P06401 whole entry): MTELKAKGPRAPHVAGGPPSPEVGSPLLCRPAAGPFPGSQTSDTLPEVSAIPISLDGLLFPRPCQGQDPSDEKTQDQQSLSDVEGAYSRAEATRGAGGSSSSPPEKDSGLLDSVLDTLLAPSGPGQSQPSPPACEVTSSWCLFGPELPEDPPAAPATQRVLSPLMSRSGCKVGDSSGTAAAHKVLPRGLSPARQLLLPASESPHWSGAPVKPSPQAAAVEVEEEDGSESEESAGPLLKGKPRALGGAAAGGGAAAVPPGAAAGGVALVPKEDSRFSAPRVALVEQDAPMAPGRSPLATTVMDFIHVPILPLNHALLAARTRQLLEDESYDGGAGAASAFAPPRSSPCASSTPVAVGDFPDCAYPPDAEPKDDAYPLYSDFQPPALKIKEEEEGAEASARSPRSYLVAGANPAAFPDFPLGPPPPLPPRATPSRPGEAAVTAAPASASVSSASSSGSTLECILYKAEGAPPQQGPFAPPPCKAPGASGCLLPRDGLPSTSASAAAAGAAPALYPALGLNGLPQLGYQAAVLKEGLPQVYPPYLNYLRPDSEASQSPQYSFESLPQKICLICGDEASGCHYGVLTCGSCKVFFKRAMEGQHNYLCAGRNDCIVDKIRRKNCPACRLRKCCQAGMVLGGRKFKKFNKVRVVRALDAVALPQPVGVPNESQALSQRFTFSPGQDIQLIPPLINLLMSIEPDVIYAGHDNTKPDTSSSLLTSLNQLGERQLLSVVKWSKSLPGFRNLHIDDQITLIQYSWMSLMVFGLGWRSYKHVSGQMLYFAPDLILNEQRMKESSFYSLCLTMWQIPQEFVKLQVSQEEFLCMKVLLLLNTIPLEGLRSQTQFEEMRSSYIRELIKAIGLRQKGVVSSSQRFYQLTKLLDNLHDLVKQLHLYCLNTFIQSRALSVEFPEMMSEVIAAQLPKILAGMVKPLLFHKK

Progesterone receptor [2] = molecular target: T1, Progesterone receptor; test: as §1; type: functional, cell-based; remark: listed apart in the source
Progesterone receptor [3] = molecular target: T2, Progesterone receptor (Rattus norvegicus, UniProt Q63449); test: Inhibitory progestational activity on oral administration in uterine C3 model; type: functional, organism-based
T2 sequence (Q63449 whole entry): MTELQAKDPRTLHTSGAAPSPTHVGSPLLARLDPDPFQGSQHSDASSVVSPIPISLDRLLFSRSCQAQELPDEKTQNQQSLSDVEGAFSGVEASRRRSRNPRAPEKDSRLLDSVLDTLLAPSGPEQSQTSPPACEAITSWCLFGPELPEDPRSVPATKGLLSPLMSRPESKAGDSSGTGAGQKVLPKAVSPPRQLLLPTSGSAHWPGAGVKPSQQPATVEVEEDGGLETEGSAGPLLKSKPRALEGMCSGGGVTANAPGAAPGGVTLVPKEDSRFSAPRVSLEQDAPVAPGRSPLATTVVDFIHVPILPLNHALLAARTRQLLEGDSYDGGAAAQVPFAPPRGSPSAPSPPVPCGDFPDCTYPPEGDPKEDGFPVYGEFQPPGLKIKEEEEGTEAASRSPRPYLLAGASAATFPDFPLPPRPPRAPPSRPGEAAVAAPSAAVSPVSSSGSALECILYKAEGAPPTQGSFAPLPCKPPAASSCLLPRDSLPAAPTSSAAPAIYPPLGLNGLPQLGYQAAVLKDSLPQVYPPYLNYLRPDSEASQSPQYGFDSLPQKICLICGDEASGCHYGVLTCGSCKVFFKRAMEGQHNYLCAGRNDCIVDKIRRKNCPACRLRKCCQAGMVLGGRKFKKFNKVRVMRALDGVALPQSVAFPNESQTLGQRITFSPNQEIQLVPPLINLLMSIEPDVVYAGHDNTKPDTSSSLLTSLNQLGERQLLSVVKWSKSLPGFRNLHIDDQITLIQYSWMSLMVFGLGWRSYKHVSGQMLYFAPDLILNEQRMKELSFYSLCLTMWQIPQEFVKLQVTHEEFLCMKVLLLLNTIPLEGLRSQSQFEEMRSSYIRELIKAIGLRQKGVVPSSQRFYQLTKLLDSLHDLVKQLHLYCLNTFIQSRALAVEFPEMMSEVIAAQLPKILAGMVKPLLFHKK

[4] = molecular target: T3, Progesterone receptor (Rattus norvegicus) (UniProt Q63449); test: Effective progestational dose on oral administration in rat decidualization model; type: functional, organism-based
T3 sequence (whole entry): T2 sequence (Q63449 whole entry)

Androgen receptor [5] = molecular target: T4, Androgen receptor (Mus musculus, UniProt P19091); test: Effective concentration against Androgen receptor in mouse fibroblast L929 cells
T4 sequence (P19091 whole entry): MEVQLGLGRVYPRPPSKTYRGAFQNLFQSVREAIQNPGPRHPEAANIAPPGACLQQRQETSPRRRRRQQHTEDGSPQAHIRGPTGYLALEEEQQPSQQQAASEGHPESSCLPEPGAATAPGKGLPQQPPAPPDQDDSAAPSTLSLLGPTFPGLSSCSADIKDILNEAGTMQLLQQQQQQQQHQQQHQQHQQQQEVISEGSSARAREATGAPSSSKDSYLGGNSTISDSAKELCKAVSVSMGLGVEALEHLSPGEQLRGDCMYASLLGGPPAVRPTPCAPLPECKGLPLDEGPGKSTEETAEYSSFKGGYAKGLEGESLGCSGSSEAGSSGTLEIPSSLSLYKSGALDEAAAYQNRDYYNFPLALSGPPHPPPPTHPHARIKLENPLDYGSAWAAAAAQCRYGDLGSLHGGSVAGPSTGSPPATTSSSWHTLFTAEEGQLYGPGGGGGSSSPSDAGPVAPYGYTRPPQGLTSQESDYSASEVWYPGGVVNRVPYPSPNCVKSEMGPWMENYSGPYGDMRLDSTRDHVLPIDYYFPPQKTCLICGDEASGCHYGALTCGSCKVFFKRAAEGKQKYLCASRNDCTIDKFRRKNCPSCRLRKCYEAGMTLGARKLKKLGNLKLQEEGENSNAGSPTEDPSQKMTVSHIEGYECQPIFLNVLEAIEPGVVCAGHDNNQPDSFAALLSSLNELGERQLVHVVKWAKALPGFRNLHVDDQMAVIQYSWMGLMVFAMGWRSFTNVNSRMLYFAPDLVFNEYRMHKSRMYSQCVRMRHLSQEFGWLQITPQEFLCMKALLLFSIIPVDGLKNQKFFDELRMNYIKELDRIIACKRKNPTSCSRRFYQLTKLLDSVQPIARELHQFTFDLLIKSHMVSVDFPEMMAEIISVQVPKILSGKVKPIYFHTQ

Glucocorticoid receptor [6] = molecular target: T5, Glucocorticoid receptor (Homo sapiens, UniProt P04150); test: Effective concentration against glucocorticoid receptor in human lung A549 cells
T5 sequence (P04150 whole entry): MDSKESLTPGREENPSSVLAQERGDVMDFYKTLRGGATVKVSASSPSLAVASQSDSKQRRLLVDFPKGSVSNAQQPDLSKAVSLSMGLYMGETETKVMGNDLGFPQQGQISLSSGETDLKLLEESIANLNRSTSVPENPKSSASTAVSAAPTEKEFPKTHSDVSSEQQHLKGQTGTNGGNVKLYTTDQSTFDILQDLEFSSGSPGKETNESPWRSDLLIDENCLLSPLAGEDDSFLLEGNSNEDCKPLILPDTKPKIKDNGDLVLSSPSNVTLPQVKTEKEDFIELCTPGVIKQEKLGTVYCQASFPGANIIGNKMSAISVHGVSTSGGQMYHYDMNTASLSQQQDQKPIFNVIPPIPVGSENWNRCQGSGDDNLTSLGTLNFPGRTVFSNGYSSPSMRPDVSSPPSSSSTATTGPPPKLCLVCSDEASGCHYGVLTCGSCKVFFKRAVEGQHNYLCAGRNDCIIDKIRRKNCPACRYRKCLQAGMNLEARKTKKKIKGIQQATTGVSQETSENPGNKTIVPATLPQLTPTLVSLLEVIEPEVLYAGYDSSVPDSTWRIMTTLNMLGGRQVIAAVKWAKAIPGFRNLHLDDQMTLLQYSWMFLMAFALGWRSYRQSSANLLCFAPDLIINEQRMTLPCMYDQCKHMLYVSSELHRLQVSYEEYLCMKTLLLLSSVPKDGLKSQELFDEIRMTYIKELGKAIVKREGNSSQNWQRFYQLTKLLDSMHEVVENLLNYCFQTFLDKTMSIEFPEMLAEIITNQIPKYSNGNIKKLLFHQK

Androgen receptor [7] = molecular target: T4, Androgen receptor; test: Inhibitory activity against Androgen receptor in mouse fibroblast L929 cells; type: cell-based
Glucocorticoid receptor [8] = molecular target: T5, Glucocorticoid receptor; test: Inhibitory activity against glucocorticoid receptor in human lung A549 cells
Progesterone receptor [9] = molecular target: T1, Progesterone receptor; test: Inhibition of 3 nM [3H]R5020 binding to progesterone receptor in human T47D cells; type: functional, cell-based

| EC50 (Progesterone receptor [1]) | Structure (SMILES) | further results |
| --- | --- | --- |
| 0.5 nM | Cc1cc(C#N)sc1-c1ccc2c(c1)C1(CCCCC1)C(=S)N2 |  |
| > 3000 nM | CN1C(=S)C2(CCCCC2)c2cc(-c3cccc(Cl)c3)ccc21 | EC50 (Progesterone receptor [2]): > 3000 nM |
| 0.3 nM | N#Cc1cc(-c2ccc3c(c2)C2(CCCCC2)C(=S)N3)cs1 |  |
| 28.7 nM | S=C1Nc2ccc(-c3cccc(Cl)c3)cc2C12CCC2 |  |
| 5.4 nM | Fc1ccc(-c2ccc3c(c2)C2(CCCCC2)C(S)=N3)cc1F |  |
| > 3000 nM | Cc1c(S)[nH]c2ccc(-c3cccc(Cl)c3)cc12 |  |
| 9.8 nM | S=C1Nc2ccc(-c3cccc(Cl)c3)cc2C12CCCC2 |  |
| 14.8 nM | N#Cc1ccc(-c2ccc3c(c2)C2(CCCCC2)C(S)=N3)cc1F |  |
| 1.4 nM | S=C1Nc2ccc(-c3ccc(Cl)s3)cc2C12CCCCC2 |  |
| 5.3 nM | S=C1Nc2ccc(-c3ccccc3Cl)cc2C12CCCCC2 |  |
| 1.9 nM | N#Cc1cc(-c2ccc3c(c2)C2(CCCCC2)C(=S)N3)co1 |  |
| 1.6 nM | Fc1cccc(-c2ccc3c(c2)C2(CCCCC2)C(S)=N3)c1 |  |
| 2 nM | N#Cc1cccc(-c2ccc3c(c2)C2(CCCCC2)C(=S)N3)c1 | ED50 [4]: 0.4 mg/kg; IC50 (Progesterone receptor [3]): 0.3 mg/kg |
| 4.3 nM | Fc1ccc(-c2ccc3c(c2)C2(CCCCC2)C(S)=N3)cc1Cl |  |
| 2000 nM | S=C1Nc2ccc(-c3ccc(Cl)cc3)cc2C12CCCCC2 |  |
| 23.5 nM | CCCCc1cc(C#N)sc1-c1ccc2c(c1)C1(CCCCC1)C(S)=N2 |  |
| 5 nM | CC1(C)C(=S)Nc2ccc(-c3cccc(Cl)c3)cc21 |  |
| 1 nM | N#Cc1ccc(-c2ccc3c(c2)C2(CCCCC2)C(=S)N3)s1 |  |
| 2.6 nM | COc1cc(F)cc(-c2ccc3c(c2)C2(CCCCC2)C(=S)N3)c1 |  |
| 4.2 nM | N#Cc1cc(-c2ccc3c(c2)C2(CCCCC2)C(=S)N3)ccc1F |  |

Further lines, the compound ahead of its results:

| Structure (SMILES) | EC50 (Progesterone receptor [1]) | further results |
| --- | --- | --- |
| CCCc1cc(C#N)sc1-c1ccc2c(c1)C1(CCCCC1)C(S)=N2 | 7.7 nM |  |
| CC(=O)O[C@]1(C(C)=O)CC[C@H]2[C@@H]3C[C@H](C)C4=CC(=O)CC[C@]4(C)[C@H]3CC[C@@]21C [MEDROXYPROGESTERONE ACETATE] |  | IC50 (Progesterone receptor [3]): 0.026 mg/kg |
| Cc1cc(C#N)sc1-c1ccc2c(c1)C1(CCCCC1)C(S)=N2 |  | ED50 [4]: 1 mg/kg |
| Fc1cc(F)cc(-c2ccc3c(c2)C2(CCCCC2)C(=S)N3)c1 | 0.8 nM |  |
| N#Cc1ccc(F)c(-c2ccc3c(c2)C2(CCCCC2)C(=S)N3)c1 | 1.4 nM |  |
| SC1=Nc2ccc(-c3cccc(Cl)c3)cc2C12CCCCC2 |  | ED50 [4]: > 3 mg/kg; IC50 (Progesterone receptor [3]): 0.37 mg/kg |
| N#Cc1ccc(-c2ccc3c(c2)C2(CCCCC2)C(S)=N3)o1 | 1.9 nM | ED50 [4]: 1 mg/kg |
| CC1(Cc2ccccc2)C(=S)Nc2ccc(-c3cccc(Cl)c3)cc21 (stereo not drawn) | 1200 nM |  |
| N#Cc1cc(F)cc(-c2ccc3c(c2)C2(CCCCC2)C(S)=N3)c1 | 0.36 nM | EC50 (Androgen receptor [5]): > 10000 nM; EC50 (Glucocorticoid receptor [6]): > 10000 nM; IC50 (Androgen receptor [7]): > 10000 nM; ED50 [4]: 0.1 mg/kg; IC50 (Glucocorticoid receptor [8]): 35 nM; IC50 (Progesterone receptor [9]): 15.9 nM; IC50 (Progesterone receptor [3]): 0.025 mg/kg |
| S=C1Nc2ccc(-c3cccc(Cl)c3)cc2C12CCCCC2 | 1.6 nM |  |
| SC1=Nc2ccc(-c3cccc(-c4ccccc4)c3)cc2C12CCCCC2 | 71.4 nM |  |
| N#Cc1ccc(-c2ccc3c(c2)C2(CCCCC2)C(S)=N3)s1 |  | ED50 [4]: 0.1 mg/kg; IC50 (Progesterone receptor [3]): 0.03 mg/kg |
| Oc1cccc(-c2ccc3c(c2)C2(CCCCC2)C(S)=N3)c1 | 2.5 nM |  |
| CCC1(CC)C(=S)Nc2ccc(-c3cccc(Cl)c3)cc21 | 200 nM |  |
| Fc1cc(Cl)cc(-c2ccc3c(c2)C2(CCCCC2)C(=S)N3)c1 | 0.5 nM |  |
